Measurements reported in PMC12677843, “Multidisciplinary Preclinical Investigations on Ferrocenyl, Ruthenocenyl, and Benzyl Derivatives of Niridazole as New Drug Candidates against Schistosomiasis” (Chemmedchem, 2025).
Like-named read-outs stand apart in the source and are kept apart here.

Key:
adult S. mansoni = test: In vitro drug sensitivity assay on adult S. mansoni (microscopic viability scoring); format: cell-based, Schistosoma mansoni; conditions: for EC50: Schistosoma mansoni, 37 °C, 5% CO2
Procedure: Figure 3 In vitro activity at 50 µM of the 12 compounds on adult S. mansoni. Adult schistosomes were incubated in culture media for 72 h at 37 °C and 5% CO2 with either compound (50 µM) or a DMSO (0.5%) control. The viability of the worms was microscopically evaluated and scored (0—3, in 0.5 steps) every 24 h. Results are from two independent experiments, each performed in duplicate. Drug activities were normalized to the DMSO controls. Data represent mean ± SD in percentage of DMSO control. […]
In vitro evaluation on adult S. mansoni
After a week for acclimatization to the new environment with controlled conditions (temperature: 22 °C ± 2 °C, humidity: 50 % ± 10 %, 12:12 h light/dark photocycle), four-week-old female NMRI mice (Charles River, Sulzfeld, Germany) were subcutaneously infected with approximately 100 cercariae to establish the S. mansoni infection. In the S. mansoni infected mice the worms were allowed to develop for 7 weeks into the adult stage, before they were extracted from the mesenteric veins of the euthanized mice. The adult worms were placed into RPMI 1640 (Gibco, Waltham MA, USA) medium supplemented with 1 % penicillin/streptomycin mixture and 5 % iFCS at 37 °C and 5 % CO 2. The drug sensitivity assay was set up in a 24-well plate with two wells containing each two pairs of S. mansoni worms per compound and concentration.
The final volume per well was 2 mL, containing the culture medium and the corresponding amount of drug dissolved in DMSO. The maximum concentration tested was 50 µM, corresponding to 0.5 % DMSO, to which all the other wells were adapted […]
to, so that all test concentrations contained always the same amount of DMSO.
Additionally, 2 wells with negative controls containing only DMSO and the culture medium were included. After an incubation period of 72 h at 37 °C and 5 % CO 2, the worms were microscopically evaluated. The drug effect was determined 24, 48 and 72 h post-exposure based on the phenotype of the adult worms, using a viability scale ranging from three referring to viable, motile worms with no change in their tegument to zero standing for the death of the worms.
All described in vitro studies with mice involved, were conducted at the Swiss Tropical and Public Health Institute, first in Basel, later in Allschwil, and had the approval by the corresponding veterinary authorities of the Canton Basel-Stadt (permit no. 2070)

juvenile S. mansoni = test: In vitro drug sensitivity assay on juvenile S. mansoni; format: cell-based, Schistosoma mansoni; conditions: Schistosoma mansoni; 72 h incubation, 37 °C, 5% CO2
Procedure: Juvenile worms were gained through cultivation of NTS as previously described. 10 In short, NTS were obtained as described above, then directly after the mechanical transformation process the newly transformed schistosomula were placed in a special culturing medium. The culture medium consists of Panserin 401, w: L-Glutamine, serum free all-round medium (Pan Biotech, Aidenbach, Germany) supplemented with 20 % human serum and 500 U/mL penicillin, […] streptomycin (LuBioScience, Switzerland). 96-well transparent polystyrene flat bottom plates were used for the in vitro growth procedure, with 40 to 60 NTS per well in 100 µL culture medium. The bordering wells of the plate were filled solely with medium to counteract evaporation and to keep the humidity as steady as possible. The plates were incubated for 21 days at 5 % CO2 and at 37 °C, with regular medium changes every 3 to 4 days. After the 21 days culturing period, the schistosomulae developed into juveniles. For the drug sensitivity assay, juvenile worms were incubated over 72 h (5 % CO 2 and 37 °C) with the test compound in the same medium, as used for the culturing process. In a 96-well plate, 250 µL medium containing the test compound and six juvenile worms, ideally of both sexes were placed in each well. All compounds were tested twice independently at 50, 10, 5 and 1 µM in duplicates. The viability of the worms was evaluated microscopically after 24, 48 and 72 h of continuous drug exposure using the same phenotypic screening method as described before. […]

Compound: O=C1NCCN1c1ncc([N+](=O)[O-])s1 [Niridazole, niridazole]
- drug effect at 50 µM on adult S. mansoni (adult S. mansoni; 50 µM, 72 h incubation, normalized to DMSO control, active if ≥60%): 83%
- EC50 (adult S. mansoni; 24 h, 24 h drug exposure, read-out: EC50 on adult S. mansoni, 24 h): > 50 µM
- EC50 (adult S. mansoni; 48 h, 48 h drug exposure, read-out: EC50 on adult S. mansoni, 48 h): 7.8 µM
- EC50 (adult S. mansoni; 72 h, 72 h drug exposure, read-out: EC50 on adult S. mansoni, 72 h): 5.6 µM
- EC50 (juvenile S. mansoni): 1.8 µM
